Source: patent US11065230B2, “Methods and pharmaceutical compositions for the treatment of systemic mastocytosis” (INSERM (INSTITUT NATIONAL DE LA SANTE ET DE LA RECHERCHE …, priority 2016, dated 2021)

Experiments:
[1] = tested on: ROSA D816V MC line (KIT mutation D816V); test: Cell death and proliferation in ROSA D816V mast cell line; type: cell-based, human; conditions: KPT at 100 nM, 1000 nM vs DMSO; for cell proliferation (counting after trypan blue staining): 24, 48 and 72 hours; for cell death (percentage of annexin positive cells): 72 hours
Description: (§1) FIG. 1. […] Upper panel: Cell death data are presented in histograms as mean percentage of annexin positive cells ±SD after 72 hours of treatment with KPT at 100 nM, 1000 nM or with DMSO (control) in ROSA WT and ROSA D816V MC lines, n=6 independent experiments. P values are determined by ANOVA Tukeys multiple comparison test. Lower panel: Proliferation curves analysis ±SD of ROSA WT and ROSA D816V MC lines assessed by counting after blue trypan staining at 24, 48 and 72 hours of treatment with KPT at 100 nM, 1000 nM, or with DMSO (control), n=3 independent experiments. P values are determined by one-way ANOVA test, *P<0.05, ***P<0,001, ****P<0,0001, ns=not significant.
(§2) Here we show the effect of KPT-251 treatment on two different human mast cell (MC) lines : ROSA and HMC1 cell lines and on bone marrow cells depleted with erythrocytes, from a patient with aggressive mastocytosis with D816V mutation. ROSA cell lines include a SCF-dependent MC line without KIT mutation (ROSA WT) and a factor-independent MC line with KIT mutation D816V (ROSA D816V). HMC1 factor-independent MC lines include HMC1.1 with G560V KIT mutation and HMC1.2 with G560V and D816V KIT mutation.
(§3) Human MC lines ROSA WT and ROSA D816V were treated for 72 hours with KPT-251 at 100 nM, 1000 nM, or with DMSO (control) and HMC1.1 and HMC1.2 were treated for 72 hours with KPT-251 at 100 nM, 500 nM, 1000 nM, or with DMSO (control). WT ROSA cell lines were cultured in the presence of human SCF at 100 ng/mL. Cells were plated at 0,5 million/mL at day 0. Cell death percentage was assessed by counting after trypan blue staining or Annexin V labelling analysed by flow cytometry. Proliferation was assessed by counting after trypan blue staining. Bone marrow cells from patient were depleted with erythrocytes and then treated for 7 days with KPT at 100 nm, 500 nM, 1000 nm, or with DMSO (control) in culture media supplemented with SCF at 80 ng/mL and IL6 at 50 ng/mL.

[2] = tested on: bone marrow cells from a patient with aggressive mastocytosis with D816V mutation; test: Cell death, proliferation and histamine secretion in patient bone marrow cells; type: cell-based, human; conditions: 7 days, KPT at 100 nM, 500 nM, 1000 nM vs DMSO
Description: FIG. 3. […] Upper panel: Cell death data presented as percentage of dead cells, and proliferation data, are presented in histograms. Cell death and proliferation were assessed by counting after blue trypan staining, after 7 days of treatment with KPT at 100 nM, 500 nM, 1000 nM or DMSO (control), n=1. Lower panel Histamin concentration in ng/mL was quantified in cell culture media of bone marrow cells from the patient, after 7 days of treatment with KPT at 100 nM, 500 nM, 1000 nM or DMSO (control), n=1
as §2, §3

[3] = tested on: HMC1.2 MC line (G560V and D816V KIT mutation); test: Cell death and proliferation in HMC1.2 mast cell line; type: cell-based, human; conditions: KPT at 100 nM, 500 nM, 1000 nM vs DMSO; for cell proliferation (counting after trypan blue staining): 24, 48 and 72 hours; for cell death (percentage of dead cells, trypan blue staining): 72 hours
Description: (§4) FIG. 2. […] Upper panel: Cell death data are presented in histograms as mean percentage of dead cells ±SD assessed by counting after blue trypan staining after 72 hours of treatment with KPT at 100 nM, 500 nM, 1000 nM or DMSO (control) in HMC1.1 and HMC1.2 MC lines, n=3 independent experiments. P values are determined by ANOVA Tukeys multiple comparison test. Lower panel: Proliferation curves analysis ±SD of HMC1.1 and HMC1.2 MC lines assessed by blue trypan staining at 24, 48 and 72 hours of treatment with KPT100 nM, 500 nM, KPT1000 nM, or DMSO (control), n=3 independent experiments. P values are determined by one-way ANOVA test, *P<0.05, **P<0,01, ns=not significant. Here we show the effect of KPT-251 treatment on two different human mast cell (MC) lines : ROSA and HMC1 cell lines and on bone marrow cells depleted with erythrocytes, from a patient with aggressive mastocytosis with D816V mutation. ROSA cell lines include a SCF-dependent MC line without KIT mutation (ROSA WT) and a factor-independent MC line with KIT mutation D816V (ROSA D816V). HMC1 factor-independent MC lines include HMC1.1 with […] KIT mutation and HMC1.2 with […] and D816V KIT mutation. […] Human MC lines ROSA WT and ROSA D816V were treated for 72 hours with KPT-251 at 100 nM, 1000 nM, or with DMSO (control) and HMC1.1 and HMC1.2 were treated for 72 hours with KPT-251 at 100 nM, 500 nM, 1000 nM, or with DMSO (control). WT ROSA cell lines were cultured in the presence of human SCF at 100 ng/mL. Cells were plated at 0,5 million/mL at day 0. Cell death percentage was assessed by counting after trypan blue staining or Annexin V labelling analysed by flow cytometry. Proliferation was assessed by counting after trypan blue staining. Bone marrow cells from patient were depleted with erythrocytes and then treated for 7 days with KPT at 100 nm, 500 nM, 1000 nm, or with DMSO (control) in culture media supplemented with SCF at 80 ng/mL and IL6 at 50 ng/mL.

[4] = tested on: non-cancerous hematopoietic cells; conditions: both in vitro and in vivo; cited from earlier work
[5] = tested on: HMC1.1 MC line (G560V KIT mutation); test: Cell death and proliferation in HMC1.1 mast cell line; type: cell-based, human; conditions: KPT at 100 nM, 500 nM, 1000 nM vs DMSO; for cell proliferation (counting after trypan blue staining): 24, 48 and 72 hours; for cell death (percentage of dead cells, trypan blue staining): 72 hours
Description: as §4

[6] = tested on: normal hematopoietic stem and progenitor cells; conditions: cited from earlier work
[7] = tested on: ROSA WT MC line (SCF-dependent, without KIT mutation); test: Cell death and proliferation in ROSA WT mast cell line; type: cell-based, human; conditions: KPT at 100 nM, 1000 nM vs DMSO; for cell proliferation (counting after trypan blue staining): 24, 48 and 72 hours; for cell death (percentage of annexin positive cells): 72 hours, SCF 100 ng/mL
Description: as §1, §2, §3

[8] = tested on: patients with relapsed or refractory AML; conditions: alone or in combination with conventional therapies; cited from earlier work
[9] = compared to first generation KPT; cited from earlier work
[10] = tested on: AML blasts and leukemia-initiating cells; conditions: cited from earlier work

SMILES: FC(F)(F)c1cc(-c2ncn(/C=C\c3nnco3)n2)cc(C(F)(F)F)c1 [KPT-251, (Z)-2-(2-(3-(3,5-bis(trifluoromethyl)phenyl)-1H-1,2,4-triazol-1-yl)vinyl)-1,3,4-oxadiazol]
- cell proliferation (counting after trypan blue staining) [1]: decreases proliferation
- cell proliferation (counting after trypan blue staining) ([1]; listed as KPT 251): decrease in cell proliferation
- cell death (percentage of annexin positive cells) [1]: induces cell death
- cell death (percentage of annexin positive cells) ([1]; listed as KPT 251): significant dose dependent increase in cell death
- cell death (percentage of dead cells, trypan blue staining) ([2]; n=1): induces cell death
- cell proliferation (counting after trypan blue staining) ([2]; n=1): decreases proliferation
- histamine concentration in cell culture media ([2]; n=1): decreases the secretion of histamin in culture media
- cell death (percentage of dead cells, trypan blue staining) ([2]; n=1, listed as KPT): increase in cell death
- cell proliferation (counting after trypan blue staining) ([2]; n=1, listed as KPT): decrease in proliferation
- histamine concentration in cell culture media ([2]; n=1, listed as KPT): decrease in media concentration of histamine
- cell proliferation (counting after trypan blue staining) [3]: decreases proliferation
- cell proliferation (counting after trypan blue staining) ([3]; listed as KPT 251): significatively decreases proliferation in a dose dependent manner, more importantly in HMC1.2 cell line
- cell death (percentage of dead cells, trypan blue staining) [3]: no effect on cell death
- cell death (percentage of dead cells, trypan blue staining) ([3]; listed as KPT 251): weak effect on cell death
- toxicity in non-cancerous hematopoietic cells [4]: minimal toxicity
- cell proliferation (counting after trypan blue staining) [5]: decreases proliferation
- cell proliferation (counting after trypan blue staining) ([5]; listed as KPT 251): significatively decreases proliferation in a dose dependent manner
- cell death (percentage of dead cells, trypan blue staining) [5]: no effect on cell death
- cell death (percentage of dead cells, trypan blue staining) ([5]; listed as KPT 251): weak effect on cell death
- effect on normal hematopoietic stem and progenitor cells [6]: no significant effect
- cell proliferation (counting after trypan blue staining) [7]: decreases proliferation
- cell proliferation (counting after trypan blue staining) ([7]; listed as KPT 251): decrease in cell proliferation
- cell death (percentage of annexin positive cells) [7]: induces cell death
- cell death (percentage of annexin positive cells) ([7]; listed as KPT 251): significant dose dependent increase in cell death

SMILES: O=C(/C=C\n1cnc(-c2cc(C(F)(F)F)cc(C(F)(F)F)c2)n1)NNc1cnccn1 [KPT-330]
- induction of remission [8]: active in inducing remission

SMILES: NC(=O)/C(=C/n1cnc(-c2cc(C(F)(F)F)cc(C(F)(F)F)c2)n1)c1cncnc1 [KPT-8602]
- brain penetration [9]: reduced brain penetration
- tolerance [9]: better tolerance
- activity against AML blasts and leukemia-initiating cells [10]: effective activity
